How the values were obtained:
[1] = biological target: T1, PI3Kβ (Homo sapiens, UniProt P42338); assay: ADP-Glo Lipid Kinase Assay, PI3Kβ kinase activity; type: biochemical; conditions: ratio of IC50 values
T1 construct: purchased Carna #11-102
Description: (§1) In this experiment, ADP-Glo Lipid Kinase Assay (Promega #V9102) from Promega was used. The lipid kinases PI3Kα/β/γ/δ catalyzed the ATP-to-ADP reaction in the presence of the substrate PIP2:3PS and ATP. The lipid kinase activity was characterized by measuring the ADP content in the reaction, and the half inhibition concentrations IC50 of the compounds on PI3Kα/β/γ/δ kinase activity were obtained.
(§2) Kinase reactions were carried out in white 384-well plates (Perkin Elmer #6007299). 2 μL of the compound of various concentrations diluted with ddH2O containing 1% DMSO was added to each well, and 2 μL of ddH2O containing 1% DMSO was added to positive control wells. Then 2 μL of 0.1 to 2 nM PI3K kinase solution diluted with 5× kinase buffer (HEPES 250 mM, MgCl2 15 mM, NaCl 250 mM, BSA 0.05%) was added to each well, and 2 μL of 5× kinase buffer was added to the negative control wells. 4 μL of 50 μM substrate PIP2:3PS (Promega #V1701) prepared with 10× Dilution buffer and ddH2O was added to all wells. Finally, 2 μL of 50 to 100 μM ATP solution diluted with water was added to start the reaction. After the reaction was carried out at room temperature for 90 to 120 minutes, 10 µL of ADP-Glo Reagent (containing 10 mM MgCl2) was added to each well, and the reaction was carried out at room temperature for 60 minutes to eliminate excess adenosine triphosphate (ATP) in the reaction. Then 20 μL of Kinase Detection Reagent was added to each well. After the reaction was carried out for 20 minutes at room temperature in the dark, the chemiluminescence was measured by BioTek Synergy H1 microplate reader.
(§3) The percentage inhibition data of the compound-treated well was calculated from positive control wells (DMSO control wells) and negative control wells (no kinase added) on the plate {% inhibition=100−[(test compound value−negative control value)]/(positive control value-negative control value)×100}. IC50 values were calculated using GraphPad prism and using a four-parameter nonlinear logistic formula to fit the data of different concentrations and corresponding percent inhibition.

[2] = biological target: T2, PI3Kγ (Homo sapiens, UniProt P48736); assay: ADP-Glo Lipid Kinase Assay, PI3Kγ kinase activity; type: biochemical; conditions: ratio of IC50 values
T2 construct: purchased Thermofisher #PV4786
Description: as §1, §2, §3

[3] = test system: HGC-27 (E542K); assay: Proliferation inhibition of PI3Kα mutant cancer cells, Cell Titer-Glo, HGC-27; type: cell-based; conditions: Homo sapiens
Description: (§4) The proliferation inhibitory effect of the compounds of the examples on the PI3Kα mutant cancer cell lines (HCC1954, HGC-27 and MKN1) was detected by Cell Titer-Glo method. Cell lines were cultured in RPMI 1640 medium (Gibco #22400089) containing 10% FBS (Gibco #10091148) and 1% P/S (Hyclone #SV30010) under the condition of 37° C. and 5% CO2. The cells were collected before the experiment, and the cell density was adjusted after cell counting. The cells were seeded in a white 96-well plate (Corning #3610) at a density of 1000 to 10000 cells/well, and incubated in an incubator at 37° C. and 5% CO2 overnight. The prepared compound solutions of different concentrations and the corresponding solvent controls were added to the plate. The plate was again incubated in an incubator at 37° C. and 5% CO2 for 48 to 96 hours. Then the cell plate and its contents were equilibrated to room temperature. 20 to 100 μL of Cell Titer-Glo solution (Promega #G7573) was added to each well, and the plate was shaken and mixed well, then incubated at room temperature for 5 to 30 minutes in the dark. The chemiluminescence was measured by a SynergyH1 microplate reader from BioTek.
(§5) The percentage inhibition data of the compound-treated well was calculated from solvent control wells on the plate {% inhibition=100−([…])×100}. IC50 values were calculated using GraphPad prism and using a four-parameter nonlinear logistic formula to fit the data of different concentrations and corresponding percent inhibition.

[4] = test system: HCC1954 (H1047R); assay: Proliferation inhibition of PI3Kα mutant cancer cells, Cell Titer-Glo, HCC1954; type: cell-based; conditions: Homo sapiens
Description: as §4, §5

[5] = test system: MKN1 (E545K); assay: Proliferation inhibition of PI3Kα mutant cancer cells, Cell Titer-Glo, MKN1; type: cell-based; conditions: Homo sapiens, MKN-1
Description: as §4, §5

[6] = biological target: T3, PI3Kδ (Homo sapiens, UniProt O00329); assay: ADP-Glo Lipid Kinase Assay, PI3Kδ kinase activity; type: biochemical; conditions: ratio of IC50 values
T3 construct: purchased Carna #11-103
Description: as §1, §2, §3

T2 sequence (P48736 whole entry): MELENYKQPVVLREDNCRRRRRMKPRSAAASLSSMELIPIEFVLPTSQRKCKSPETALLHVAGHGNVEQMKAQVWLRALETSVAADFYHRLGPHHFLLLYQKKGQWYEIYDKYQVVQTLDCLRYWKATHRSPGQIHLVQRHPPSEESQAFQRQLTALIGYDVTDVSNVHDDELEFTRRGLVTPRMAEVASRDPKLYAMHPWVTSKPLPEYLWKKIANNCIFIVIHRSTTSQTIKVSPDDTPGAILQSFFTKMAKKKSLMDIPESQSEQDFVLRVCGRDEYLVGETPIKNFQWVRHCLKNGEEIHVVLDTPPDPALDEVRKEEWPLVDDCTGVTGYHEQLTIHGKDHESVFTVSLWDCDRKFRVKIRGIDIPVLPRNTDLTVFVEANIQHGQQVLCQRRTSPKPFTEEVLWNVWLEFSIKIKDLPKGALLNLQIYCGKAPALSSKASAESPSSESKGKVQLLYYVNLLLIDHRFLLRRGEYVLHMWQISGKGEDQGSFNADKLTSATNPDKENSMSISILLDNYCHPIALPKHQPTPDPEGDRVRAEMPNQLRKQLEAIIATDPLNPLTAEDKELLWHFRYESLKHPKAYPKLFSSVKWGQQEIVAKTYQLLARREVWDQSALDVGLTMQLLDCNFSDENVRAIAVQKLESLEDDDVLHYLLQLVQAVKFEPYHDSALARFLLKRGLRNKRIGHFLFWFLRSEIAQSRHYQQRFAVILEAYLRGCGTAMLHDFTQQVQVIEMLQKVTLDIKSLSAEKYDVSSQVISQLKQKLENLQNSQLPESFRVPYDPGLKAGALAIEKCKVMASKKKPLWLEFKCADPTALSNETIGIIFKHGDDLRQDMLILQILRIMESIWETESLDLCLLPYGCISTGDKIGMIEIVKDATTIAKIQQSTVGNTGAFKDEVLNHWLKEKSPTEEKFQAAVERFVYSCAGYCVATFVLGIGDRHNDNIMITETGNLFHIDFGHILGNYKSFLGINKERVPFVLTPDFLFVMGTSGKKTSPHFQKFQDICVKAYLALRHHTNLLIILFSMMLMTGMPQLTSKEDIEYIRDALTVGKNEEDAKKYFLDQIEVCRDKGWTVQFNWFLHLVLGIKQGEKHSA
T1 sequence (P42338 whole entry): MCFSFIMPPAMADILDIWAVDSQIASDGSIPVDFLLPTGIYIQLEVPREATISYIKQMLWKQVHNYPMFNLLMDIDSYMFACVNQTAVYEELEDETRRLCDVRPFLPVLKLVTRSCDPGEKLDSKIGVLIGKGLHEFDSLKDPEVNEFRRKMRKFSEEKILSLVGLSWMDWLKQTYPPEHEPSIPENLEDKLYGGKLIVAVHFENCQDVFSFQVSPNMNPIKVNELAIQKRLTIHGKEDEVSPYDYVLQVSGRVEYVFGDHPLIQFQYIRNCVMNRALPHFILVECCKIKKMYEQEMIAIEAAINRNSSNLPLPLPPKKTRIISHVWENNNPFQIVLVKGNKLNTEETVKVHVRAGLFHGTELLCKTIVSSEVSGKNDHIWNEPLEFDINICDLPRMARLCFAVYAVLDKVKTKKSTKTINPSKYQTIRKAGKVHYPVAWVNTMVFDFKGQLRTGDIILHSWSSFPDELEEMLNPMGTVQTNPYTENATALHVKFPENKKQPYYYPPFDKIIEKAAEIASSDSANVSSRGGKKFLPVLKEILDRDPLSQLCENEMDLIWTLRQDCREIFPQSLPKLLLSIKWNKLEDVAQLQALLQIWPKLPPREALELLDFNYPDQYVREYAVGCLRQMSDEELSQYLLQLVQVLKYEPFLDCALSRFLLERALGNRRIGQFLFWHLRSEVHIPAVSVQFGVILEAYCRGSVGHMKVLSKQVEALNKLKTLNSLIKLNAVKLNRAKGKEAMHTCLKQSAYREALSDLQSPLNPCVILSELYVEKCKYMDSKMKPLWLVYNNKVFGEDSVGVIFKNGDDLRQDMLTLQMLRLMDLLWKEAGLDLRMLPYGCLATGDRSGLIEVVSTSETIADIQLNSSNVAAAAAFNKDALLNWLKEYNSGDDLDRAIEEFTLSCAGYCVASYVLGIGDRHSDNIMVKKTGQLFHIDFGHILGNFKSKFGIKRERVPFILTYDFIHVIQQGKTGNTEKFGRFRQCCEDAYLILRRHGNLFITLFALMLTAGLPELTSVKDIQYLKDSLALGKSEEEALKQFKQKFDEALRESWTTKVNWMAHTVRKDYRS
T1 sequence (P27986 whole entry partner): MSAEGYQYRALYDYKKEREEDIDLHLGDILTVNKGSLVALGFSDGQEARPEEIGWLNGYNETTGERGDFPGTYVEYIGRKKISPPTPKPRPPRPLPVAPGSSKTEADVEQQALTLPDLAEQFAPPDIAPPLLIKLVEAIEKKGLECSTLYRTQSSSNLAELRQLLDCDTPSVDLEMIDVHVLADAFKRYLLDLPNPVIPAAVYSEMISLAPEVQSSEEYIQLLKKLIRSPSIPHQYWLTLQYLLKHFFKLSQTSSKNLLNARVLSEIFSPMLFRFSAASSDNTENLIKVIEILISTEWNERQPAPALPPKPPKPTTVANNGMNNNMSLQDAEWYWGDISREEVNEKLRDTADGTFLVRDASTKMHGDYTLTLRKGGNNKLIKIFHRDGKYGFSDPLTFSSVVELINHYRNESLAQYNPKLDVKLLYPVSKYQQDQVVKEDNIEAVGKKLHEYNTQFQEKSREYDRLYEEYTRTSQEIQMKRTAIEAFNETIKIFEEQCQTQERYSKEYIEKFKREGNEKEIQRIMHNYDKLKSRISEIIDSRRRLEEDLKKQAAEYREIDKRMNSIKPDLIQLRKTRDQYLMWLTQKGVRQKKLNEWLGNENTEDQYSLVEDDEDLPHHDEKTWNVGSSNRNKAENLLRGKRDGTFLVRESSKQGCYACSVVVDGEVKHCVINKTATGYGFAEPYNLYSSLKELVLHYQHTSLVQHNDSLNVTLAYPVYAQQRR
T3 sequence (O00329 whole entry): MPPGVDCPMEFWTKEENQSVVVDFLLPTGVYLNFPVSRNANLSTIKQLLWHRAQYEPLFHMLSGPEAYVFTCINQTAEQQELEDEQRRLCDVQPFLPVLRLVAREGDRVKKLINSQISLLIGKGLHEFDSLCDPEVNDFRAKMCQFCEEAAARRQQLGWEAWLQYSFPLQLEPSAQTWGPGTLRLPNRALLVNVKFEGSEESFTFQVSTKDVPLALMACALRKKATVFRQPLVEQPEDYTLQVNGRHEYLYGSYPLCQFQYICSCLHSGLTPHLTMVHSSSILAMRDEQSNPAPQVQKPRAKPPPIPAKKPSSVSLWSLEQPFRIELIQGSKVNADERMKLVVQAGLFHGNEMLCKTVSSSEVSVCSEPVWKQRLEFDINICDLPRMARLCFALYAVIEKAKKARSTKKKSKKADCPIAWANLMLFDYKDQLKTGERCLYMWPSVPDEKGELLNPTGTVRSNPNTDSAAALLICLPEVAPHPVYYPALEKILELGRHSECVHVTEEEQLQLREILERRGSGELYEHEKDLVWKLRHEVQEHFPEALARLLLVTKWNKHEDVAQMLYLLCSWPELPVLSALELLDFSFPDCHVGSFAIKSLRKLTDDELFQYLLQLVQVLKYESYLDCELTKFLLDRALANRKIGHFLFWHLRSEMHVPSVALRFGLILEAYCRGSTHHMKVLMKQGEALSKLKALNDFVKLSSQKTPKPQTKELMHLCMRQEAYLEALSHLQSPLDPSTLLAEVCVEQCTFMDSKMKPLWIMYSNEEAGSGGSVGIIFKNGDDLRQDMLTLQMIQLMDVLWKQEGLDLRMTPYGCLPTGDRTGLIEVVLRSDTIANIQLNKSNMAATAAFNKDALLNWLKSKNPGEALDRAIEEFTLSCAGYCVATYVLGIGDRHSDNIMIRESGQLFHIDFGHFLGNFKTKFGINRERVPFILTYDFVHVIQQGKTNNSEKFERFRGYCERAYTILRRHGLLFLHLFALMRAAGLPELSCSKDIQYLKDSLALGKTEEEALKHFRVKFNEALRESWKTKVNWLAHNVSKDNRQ
T3 sequence (P27986 whole entry partner): as the sequence (P27986 whole entry partner) above

Structure (SMILES)	Selectivity of PI3Kα vs PI3Kβ [1]	Selectivity of PI3Kα vs PI3Kγ [2]	IC50 [3] [nM]	IC50 [4] [nM]	IC50 [5] [nM]	Selectivity of PI3Kα vs PI3Kδ [6]
COC[C@H](Nc1ccc2c(c1F)OCCn1cc(N3C(=O)SC[C@H]3C(F)F)nc1-2)C(N)=O [Example 51, (S)-2-((2-((R)-4(difluoromethyl)-2-oxothiazolidin-3-yl)-8-fluoro-5,6-dihydrobenzo[f]imidazo[1,2-d][1,4]oxazepin-9-yl)amino)-3-methoxypropionamide]	157	170	455	243	426	51
NC(=O)[C@@H]1CCN1c1ccc2c(c1)OCCn1cc(N3C(=O)OC[C@H]3C(F)F)nc1-2 [Example 21, (S)-1-(2-((S)-4-(difluoromethyl)-2-oxooxazolidin-3-yl)-5,6-dihydrobenzo[f]imidazo[1,2-d][1,4]oxazepin-9-yl)azetidine-2-carboxamide]			396	205	399	
C[C@H](Nc1ccc2c(c1)OCCn1cc(N3C(=O)CC[C@H]3C(F)F)nc1-2)C(N)=O [Example 46, (S)-2-((2-((S)-2-(difluoromethyl)-5-oxopyrrolidin-1-yl)-5,6-dihydrobenzo[f]imidazo[1,2-d][1,4]oxazepin-9-yl)amino)propionamide]	785	243	186	184	268	90
CC(C)[C@H](Nc1ccc2c(c1)OCCn1cc(N3C(=O)OC[C@H]3C(F)F)nc1-2)C(N)=O [Example 14, (S)-2-((2-((S)-4-(difluoromethyl)-2-oxooxazolidin-3-yl)-5,6-dihydrobenzo[f]imidazo[1,2-d][1,4]oxazepin-9-yl)amino)-3-methylbutanamide]	358	112	417	204	615	103
NC(=O)[C@@H]1CCCN1c1ccc2c(c1)OCCn1cc(N3C(=O)SC[C@H]3C(F)F)nc1-2 [Example 53, (S)-1-(2-((R)-4-(difluoromethyl)-2-oxothiazolidin-3-yl)-5,6-dihydrobenzo[f]imidazo[1,2-d][1,4]oxazepin-9-yl)pyrrolidine-2-carboxamide]	423	254	77	40	66	43
C[C@@H](C(N)=O)N(C)c1ccc2c(c1)OCCn1cc(N3C(=O)SC[C@H]3C(F)F)nc1-2 [Example 54, (S)-2-((2-((R)-4-(difluoromethyl)-2-oxothiazolidin-3-yl)-5,6-dihydrobenzo[f]imidazo[1,2-d][1,4]oxazepin-9-yl)(methyl)amino)propionamide]	238	217	32	29	42	31
COC[C@H](Nc1ccc2c(c1)OCCn1cc(N3C(=O)OC[C@H]3C(F)F)nc1-2)C(N)=O [Example 43, (S)-2-((2-((S)-4-(difluoromethyl)-2-oxooxazolidin-3-yl)-5,6-dihydrobenzo[f]imidazo[1,2-d][1,4]oxazepin-9-yl)amino)-3-methoxypropionamide]			531	222	368	
CC(Nc1ccc2c(c1)OCCn1cc(N3C(=O)OC(C)[C@H]3C(F)F)nc1-2)C(N)=O (stereo in doubt) [Example 26, (R)-2-((2-((4S,5R)-4-(difluoromethyl)-5-methyl-2-oxooxazolidin-3-yl)-5,6-dihydrobenzo[f]imidazo[1,2-d][1,4]oxazepin-9-yl)amino)propionamide]	1101	214	325	160	508	125
C[C@H](Nc1ccc2c(c1)OCCn1cc(N3C(=O)N(C)C[C@H]3C(F)F)nc1-2)C(N)=O [Example 24, (S)-2-((2-((S)-5-(difluoromethyl)-3-methyl-2-oxoimidazolidin-1-yl)-5,6-dihydrobenzo[f]imidazo[1,2-d][1,4]oxazepin-9-yl)amino)propionamide]	1238	80				75
C[C@@H](C(N)=O)N(C)c1ccc2c(c1)OCCn1cc(N3C(=O)OC[C@H]3C(F)F)nc1-2 [Example 19, (S)-2-((2-((S)-4-(difluoromethyl)-2-oxooxazolidin-3-yl)-5,6-dihydrobenzo[f]imidazo[1,2-d][1,4]oxazepin-9-yl)(methyl)amino)propionamide]	329	648	169	112	214	29
C[C@H](Nc1ccc2c(c1F)OCCn1cc(N3C(=O)OC[C@H]3C(F)F)nc1-2)C(N)=O [Example 31, (S)-2-((2-((S)-4-(difluoromethyl)-2-oxooxazolidin-3-yl)-8-fluoro-5,6-dihydrobenzo[f]imidazo[1,2-d][1,4]oxazepin-9-yl)amino)propionamide]	178	87	499	226	653	59
C[C@H](Nc1cc(F)c2c(c1)OCCn1cc(N3C(=O)OC[C@H]3C(F)F)nc1-2)C(N)=O [Example 32, (S)-2-((2-((S)-4-(difluoromethyl)-2-oxooxazolidin-3-yl)-11-fluoro-5,6-dihydrobenzo[f]imidazo[1,2-d][1,4]oxazepin-9-yl)amino)propionamide]	536	98				88
C[C@H](Nc1ccc2c(c1)OCCn1c-2nc(N2C(=O)OC[C@H]2C(F)F)c1F)C(N)=O [Example 1, (S)-2-((2-((S)-4-(difluoromethyl)-2-oxooxazolidin-3-yl)-3-fluoro-5,6-dihydrobenzo[f]imidazo[1,2-d][1,4]oxazepin-9-yl)amino)propionamide]	>1266	226				177
